Assay results as given in patent US9512108B2, “9,9,10,10-Tetrafluoro-9,10-dihydrophenanthrene hepatitis C virus inhibitor and application thereof” (NANJING SANHOME PHARMACEUTICAL CO., LTD., priority 2013, dated 2016).

How the values were obtained:
Format in all cases: cell-based
[1] = Cell viability test (CellTiter-Fluor) in HCV 1a replicon cells; conditions: human, Huh7 cells stably transfected with HCV genotype 1a replicon; HCV 1a replicon Huh7 cells, 3 days culture; read-out: CC50 (half cytotoxic concentration)
Method: (§1) 4) Cell viability test: after adding detection reagent for fluorescence assay of cell growth to each well and culturing the cells in a 37° C., 5% CO2 incubator for one hour, detecting the fluorescence signal values using the multimode microplate reader, with the raw data (RFU) being used for calculation of the cytotoxicity of the compounds;
(§2) 6) Data processing: processing the raw data using the following formula into the inhibition percentage of the compound against HCV replicon (Inhibition %) and the percentage of cell viability (Viability %): Inhibition %=(RLUZPE−RLUCPD)/(RLUZPE−RLUHPE)×100 Viability %=(RFUCPD−RFUHPE)/(RFUZPE−RFUHPE)×100 wherein CPD: the fluorescence signal value of the well of the compound; ZPE (zero percent effect): the fluorescence signal value of the zero percent effect control; HPE (hundred percent effect): the fluorescence signal value of the hundred percent effect control.
(§3) The Inhibition % and Viability % were introduced into GraphPad Prism software for data processing, respectively, to obtain the half effective concentration EC50 of the compound against HCV replicon and the half cytotoxic concentration CC50.
(§4) HCV 1a replicon cells, i.e., Huh7 cell line stably transfected with HCV genotype 1a replicon (provided by WuXi AppTec (Shanghai) Co., Ltd.) were used as the experimental cells. As described above for the HCV 1b replicon cell system, the HCV genotype 1a replicon cell systems were similarly prepared.
(§5) The anti-HCV-1a activities of the compounds of the present invention were tested according to the method for testing the anti-HCV-1b replicon activity in Experimental Example 1.

[2] = Cell viability test (CellTiter-Fluor) in HCV 1b replicon cells; conditions: human, Huh7 cells stably transfected with HCV genotype 1b replicon; HCV 1b replicon Huh7 cells, 3 days culture; read-out: CC50 (half cytotoxic concentration)
Method: (§6) Each of the compounds prepared in the above examples of the present invention was dissolved at 10 mM in DMSO, then diluted to 50 μM with DMEM complete medium, then diluted to 20 nM with complete medium containing 0.5% DMSO, and then serially diluted by 3-fold, to obtain a total of 10 concentrations.
(§7) HCV 1b replicon cells, i.e., Huh7 cell line stably transfected with HCV genotype 1b replicon, were provided by WuXi AppTec (Shanghai) Co., Ltd. Specific preparation methods of Huh7 lb replicon cell system can be found in Lohmann V, Korner F, Koch J, Herian U, Theilmann L, Bartenschlager R., Replication of subgenomic hepatitis C virus RNAs in a hepatoma cell line, Science 285 (5424): 110-113 (1999).
(§8) 1) Preparation of compounds: adding 75 μl of the compounds of the present invention at the above concentration gradient to a 96-well plate using POD810 system, with each concentration for each compound in duplicate;
(§9) 2) Preparation of cells: collecting HCV 1b replicon cells in logarithmic phase and resuspending them in DMEM complete medium, and then adding 75 μl of the cell suspension to each well of the above 96-well plate (8×10^3 cells/well); at the same time, establishing zero percent effect (ZPE) control group and hundred percent effect (HPE) control group, with ZPE group using complete culture medium containing 0.5% DMSO instead of the compound, and the HPE group merely containing DMEM medium in the wells.
(§10) 3) Cell culture: placing the 96-well plate in a 37° C., 5% CO2 incubator and culturing for 3 days.
as §1, §2, §3

HCV genotype 1b replicon = assay: Anti-HCV-1b replicon activity (luciferase, Bright-Glo); conditions: Hepatitis C virus, Huh-7, 72 h, read-out: EC50 against HCV-1b replicon
Method: as §6, §7, §8, §9, §10
(§11) 5) Anti-HCV replicon activity assay: adding luciferase luminescence substrate Bright-Glo to each well, and detecting luminescence signal values using the multimode microplate reader within 5 min, with the raw data (RLU) being used for calculation of the anti-HCV activities of the compounds;
as §2, §3

HCV genotype 1a replicon = assay: Anti-HCV-1a replicon activity (luciferase, Bright-Glo); conditions: Hepatitis C virus, Huh-7, 72 h, read-out: EC50 against HCV-1a replicon
Method: as §8, §9, §10, §11, §2, §3, §4, §5

Compound: COC(=O)N[C@H](C(=O)N1CCC[C@H]1c1ncc(-c2ccc3c(c2)C(F)(F)C(F)(F)c2cc(-c4cnc([C@@H]5CCCN5C(=O)[C@@H](NC(=O)OC)C(C)C)[nH]4)ccc2-3)[nH]1)C(C)C [Example 1, Dimethyl (2S,2′S)-1,1′-((2S,2′S)-2,2′-(5,5′-(9,9,10,10-tetrafluoro-9,10-dihydrophenanthren-2,7-diyl)bis(1H-imidazol-5,2-diyl))bis(pyrrolidin-2,1-diyl))bis(3-methyl-1-oxobutan-2,1-diyl)dicarbamate]
- CC50 at 3 days [1]: > 10 nM
- CC50 at 3 days [2]: > 10 nM
- EC50 (HCV genotype 1b replicon): 0.0046 nM
- EC50 (HCV genotype 1a replicon): 0.19 nM

Compound: COC(=O)N[C@H](C(=O)N1CCC[C@H]1c1ncc(-c2ccc3c(c2)C(F)(F)C(F)(F)c2cc(-c4cnc([C@@H]5CCCN5C(=O)[C@@H](NC(=O)OC)[C@@H](C)O)[nH]4)ccc2-3)[nH]1)[C@@H](C)O [Example 8, Dimethyl ((2S,2′S,3R,3′R)-((2S,2′S)-2,2′-(5,5′-(9,9,10,10-tetrafluoro-9,10-dihydrophenanthren-2,7-diyl)bis(1H-imidazol-5,2-diyl))bis(pyrrolidin-2,1-diyl))bis(3-hydroxy-1-oxobutan-2,1-diyl))dicarbamate]
- CC50 at 3 days [2]: > 10 nM
- EC50 (HCV genotype 1b replicon): 0.058 nM

Compound: COC(=O)N[C@H](C(=O)N1CC2(C[C@H]1c1ncc(-c3ccc4c(c3)C(F)(F)C(F)(F)c3cc(-c5ccc6nc([C@@H]7CCCN7C(=O)[C@@H](NC(=O)OC)C(C)C)[nH]c6c5)ccc3-4)[nH]1)OCCO2)C(C)C [Example 11, Methyl N-((2S)-1-((S)-2-(6-(7-((S)-2-(7-((S)-2-((methoxycarbonyl)amino)-3-methylbutanoyl)-1,4-dioxa-7-azaspiro[4.4]nonan-8-yl)-1H-imidazol-5-yl)-9,9,10,10-tetrafluoro-9,10-dihydrophenanthren-2-yl)-1H-benzo[d]imidazol-2-yl)pyrrolidin-1-yl)-3-methyl-1-oxobutan-2-yl)carbamate]
- CC50 at 3 days [1]: > 10 nM
- CC50 at 3 days [2]: > 10 nM
- EC50 (HCV genotype 1b replicon): 0.006 nM
- EC50 (HCV genotype 1a replicon): 0.079 nM

Compound: COC(=O)N[C@H](C(=O)N1CC2(CC2)C[C@H]1c1nc(-c2ccc3c(c2)C(F)(F)C(F)(F)c2cc(-c4ccc5nc([C@@H]6CCCN6C(=O)[C@@H](NC(=O)OC)C(C)C)[nH]c5c4)ccc2-3)c[nH]1)C(C)C [Example 12, Methyl N-((2S)-1-((S)-2-(6-(7-((S)-2-(5-((S)-2-((methoxycarbonyl)amino)-3-methylbutanoyl)-5-azaspiro[2.4]heptan-6-yl)-1H-imidazol-5-yl)-9,9,10,10-tetrafluoro-dihydrophenanthren-2-yl)-1H-benzo[d]imidazol-2-yl)pyrrolidin-1-yl)-3-methyl-1-oxobutan-2-yl)carbamate]
- CC50 at 3 days [1]: > 10 nM
- CC50 at 3 days [2]: > 10 nM
- EC50 (HCV genotype 1b replicon): 0.008 nM
- EC50 (HCV genotype 1a replicon): 0.061 nM

Compound: COC(=O)N[C@H](C(=O)N1CCC[C@H]1c1ncc(-c2ccc3c(c2)C(F)(F)C(F)(F)c2cc(-c4cnc([C@@H]5CCCN5C(=O)[C@@H](NC(=O)OC)[C@@H](C)OC)[nH]4)ccc2-3)[nH]1)[C@@H](C)OC [Example 13]
- CC50 at 3 days [2]: > 10 nM
- EC50 (HCV genotype 1b replicon): 0.056 nM

Compound: COC(=O)N[C@H](C(=O)N1CCC[C@H]1c1ncc(-c2ccc3c(c2)C(F)(F)C(F)(F)c2cc(-c4cnc([C@@H]5CC6(CN5C(=O)[C@@H](NC(=O)OC)C(C)C)OCCO6)[nH]4)ccc2-3)[nH]1)C(C)C [Example 14, Methyl N-((2S)-1-((S)-2-(5-(7-((S)-2-(7-((S)-2-((methoxycarbonyl)amino)-3-methylbutanoyl)-1,4-dioxa-7-azaspiro[4.4]nonan-8-yl)-1H-imidazol-5-yl)-9,9,10,10-tetrafluoro-9,10-dihydrophenanthren-2-yl)-1H-imidazol-2-yl)pyrrolidin-1-yl)-3-methyl-1-oxobutan-2-yl)carbamate]
- CC50 at 3 days [1]: > 10 nM
- CC50 at 3 days [2]: > 10 nM
- EC50 (HCV genotype 1b replicon): 0.006 nM
- EC50 (HCV genotype 1a replicon): 0.15 nM

Compound: COC(=O)N[C@H](C(=O)N1CC2(C[C@H]1c1ncc(-c3ccc4c(c3)C(F)(F)C(F)(F)c3cc(-c5cnc([C@@H]6CC7(CN6C(=O)[C@@H](NC(=O)OC)C(C)C)OCCO7)[nH]5)ccc3-4)[nH]1)OCCO2)C(C)C [Example 17, Dimethyl ((2S,2′S)-((2S,2′S)-2,2′-(5,5′-(9,9,10,10-tetrafluoro-9,10-dihydrophenanthren-2,7-diyl)bis(1H-imidazol-5,2-diyl))bis(1,4-dioxa-7-azaspiro[4.4]nonan-7,8-diyl))bis(3-methyl-1-oxobutan-2,1-diyl))dicarbamate]
- CC50 at 3 days [1]: > 10 nM
- CC50 at 3 days [2]: > 10 nM
- EC50 (HCV genotype 1b replicon): 0.007 nM
- EC50 (HCV genotype 1a replicon): 0.175 nM
